Results as given in patent US8338039B2, “Fuel cell” (Sony Corporation, priority 2009, dated 2012).

What was measured:
[1] = tested on: anode having the enzyme catalyst (glucose dehydrogenase, diaphorase); test: Current generated by the enzyme-catalyst anode of the fuel cell with additive in the fuel solution; format: biochemical
Protocol: Tests were conducted under the following conditions to investigate how the plant essential oil added to the fuel solution affects the fuel cell performance. The plant essential oils used for the test are nutmeg oil, lemongrass oil, and palmarosa oil. The concentration of each plant essential oil in the fuel solution is 1%. The control substance is N,N-diethyl-m-toluamide (DEET), which is an active ingredient used for most insect repellent sprays. The concentration of DEET in the fuel solution is 1%. Incidentally, the concentration of DEET in the formulation is required to be less than 12% according to the Japanese regulation. The fuel solution is a pH buffer solution composed of 2.0 M imidazole/H2SO4, 0.4 M glucose, and ethanol, pH 7.0. […] The plant essential oil is added to the fuel solution and suspended therein by stirring immediately before current measurement. The electrode is one which is made of carbon fiber (1 mm thick). The electrode is coated with an immobilizing agent which is composed of the following ingredients. A mixture of 1.0 PLL and 0.0625 glutaraldehyde, 75.2 μL A solution of glucose dehydrogenase (150 mg/mL), 12.4 μL A solution of diaphorase (150 mg/mL), 1.6 μL A solution of NADH (40.96 mg/mL), 4 μL A solution of AQ2S (60 mM), 37.4 μL An enzyme produced by Amano Enzyme Co., Ltd. is immobilized on the above-mentioned immobilizing agent. […]

[2] = Dissolution of additive in the fuel solution; format: physicochemical; conditions: fuel solution containing 1% ethanol; 1% DEET
Protocol: The fuel solution is a pH buffer solution composed of 2.0 M imidazole/H2SO4, 0.4 M glucose, and ethanol, pH 7.0. […] The plant essential oil is added to the fuel solution and suspended therein by stirring immediately before current measurement.

solubility in the fuel solution [2]: dissolves 1% DEET completely
SMILES: CCN(CC)C(=O)c1cccc(C)c1 [DEET, N,N-diethyl-m-toluamide]
current value produced by the enzymatic catalyst at the anode, compared with fuel solution not incorporated with the additive ([1]; 1% additive in fuel solution (2.0 M imidazole/H2SO4, 0.4 M glucose, ethanol, pH 7.0), carbon fiber anode): lower current value
effect on the fuel cell performance ([1]; added to the fuel solution at 1%): deteriorates the fuel cell performance
